# Target: T1, CFTR in F508del/MF-HBE cells (Homo sapiens, UniProt P13569, DEL508-508)
# T1 construct: human bronchial epithelial (HBE) cells derived from CF subjects heterozygous for F508del and a minimal function CFTR mutation; endogenous in cells; host or cells: primary human bronchial epithelial cells from CF subjects (F508del/MF-HBE)
# Test: Ussing chamber assay of CFTR-mediated short-circuit currents (identification of potentiator compounds)
# Assay type: cell-based
# Conditions: potentiator incubated 18-24 hours at 37° C. in combination with 10 μM corrector, in the presence of 20% human serum, CFTR-mediated ISC
# Experimental: Ussing chamber experiments were performed using human bronchial epithelial (HBE) cells derived from CF subjects heterozygous for F508del and a minimal function CFTR mutation (F508del/MF-HBE) and cultured as previously described (Neuberger T, Burton B, Clark H, Van Goor F; Methods Mol. Biol. 2011:741:39-54). After four days the apical media was removed, and the cells were grown at an air liquid interface for >14 days prior to use.
# To isolate the CFTR-mediated short-circuit (ISC) current, F508del/MF-HBE grown on Costar® Snapwell™ cell culture inserts were mounted in an Ussing chamber and the transepithelial ISC was measured under voltage-clamp recording conditions (Vhold=0 mV) at 37° C. The basolateral solution contained (in mM) 145 NaCl, 0.83 K2HPO4, 3.3 KH2PO4, 1.2 MgCl2, 1.2 CaCl2), 10 Glucose, 10 HEPES (pH adjusted to 7.4 with NaOH) and the apical solution contained (in mM) 145 NaGluconate, 1.2 MgCl2, 1.2 CaCl2), 10 glucose, 10 HEPES (pH adjusted to 7.4 with NaOH) and 30 μM amiloride to block the epithelial sodium channel. Forskolin (20 μM) was added to the apical surface to activate CFTR, followed by apical addition of a CFTR inhibitor cocktail consisting of BPO, GlyH-101 and CFTR inhibitor 172 (each at 20 μM final assay concentration) to specifically isolate CFTR currents. The CFTR-mediated ISC (μA/cm^2) for each condition was determined from the peak forskolin response to the steady-state current following inhibition.
# The activity of the CFTR potentiator compounds on the CFTR-mediated ISC was determined in Ussing chamber studies as described above. The F508del/MF-HBE cell cultures were incubated with the potentiator compounds at a range of concentrations in combination with 10 μM (14S)-8-[3-(2-{dispiro[2.0.2.1]heptan-7-yl}ethoxy)-1H-pyrazol-1-yl]-12,12-dimethyl-2λ^6-thia-3,9,11,18,23-pentaazatetracyclo[17.3.1.111,14.05,10]tetracosa-1(22),5,7,9,19(23),20-hexaene-2,2,4-trione for 18-24 hours at 37° C. and in the presence of 20% human serum. The concentration of potentiator compounds and (14S)-8-[3-(2-{dispiro[2.0.2.1]heptan-7-yl}ethoxy)-1H-pyrazol-1-yl]-12,12-dimethyl-2λ^6-thia-3,9,11,18,23-pentaazatetracyclo[17.3.1.111,14.05,10]tetracosa-1(22),5,7,9,19(23),20-hexaene-2,2,4-trione used during the 18-24 hours incubations was kept constant throughout the Ussing chamber measurement of the CFTR-mediated ISC to ensure compounds were present throughout the entire experiment. The efficacy and potency of the putative F508del potentiators was compared to that of the known potentiator, ivacaftor (N-[2,4-bis(1,1-dimethylethyl)-5-hydroxyphenyl]-1,4-dihydro-4-oxoquinoline-3-carboxamide).
# T1 sequence (P13569 with tags, fused parts or gaps DEL508-508): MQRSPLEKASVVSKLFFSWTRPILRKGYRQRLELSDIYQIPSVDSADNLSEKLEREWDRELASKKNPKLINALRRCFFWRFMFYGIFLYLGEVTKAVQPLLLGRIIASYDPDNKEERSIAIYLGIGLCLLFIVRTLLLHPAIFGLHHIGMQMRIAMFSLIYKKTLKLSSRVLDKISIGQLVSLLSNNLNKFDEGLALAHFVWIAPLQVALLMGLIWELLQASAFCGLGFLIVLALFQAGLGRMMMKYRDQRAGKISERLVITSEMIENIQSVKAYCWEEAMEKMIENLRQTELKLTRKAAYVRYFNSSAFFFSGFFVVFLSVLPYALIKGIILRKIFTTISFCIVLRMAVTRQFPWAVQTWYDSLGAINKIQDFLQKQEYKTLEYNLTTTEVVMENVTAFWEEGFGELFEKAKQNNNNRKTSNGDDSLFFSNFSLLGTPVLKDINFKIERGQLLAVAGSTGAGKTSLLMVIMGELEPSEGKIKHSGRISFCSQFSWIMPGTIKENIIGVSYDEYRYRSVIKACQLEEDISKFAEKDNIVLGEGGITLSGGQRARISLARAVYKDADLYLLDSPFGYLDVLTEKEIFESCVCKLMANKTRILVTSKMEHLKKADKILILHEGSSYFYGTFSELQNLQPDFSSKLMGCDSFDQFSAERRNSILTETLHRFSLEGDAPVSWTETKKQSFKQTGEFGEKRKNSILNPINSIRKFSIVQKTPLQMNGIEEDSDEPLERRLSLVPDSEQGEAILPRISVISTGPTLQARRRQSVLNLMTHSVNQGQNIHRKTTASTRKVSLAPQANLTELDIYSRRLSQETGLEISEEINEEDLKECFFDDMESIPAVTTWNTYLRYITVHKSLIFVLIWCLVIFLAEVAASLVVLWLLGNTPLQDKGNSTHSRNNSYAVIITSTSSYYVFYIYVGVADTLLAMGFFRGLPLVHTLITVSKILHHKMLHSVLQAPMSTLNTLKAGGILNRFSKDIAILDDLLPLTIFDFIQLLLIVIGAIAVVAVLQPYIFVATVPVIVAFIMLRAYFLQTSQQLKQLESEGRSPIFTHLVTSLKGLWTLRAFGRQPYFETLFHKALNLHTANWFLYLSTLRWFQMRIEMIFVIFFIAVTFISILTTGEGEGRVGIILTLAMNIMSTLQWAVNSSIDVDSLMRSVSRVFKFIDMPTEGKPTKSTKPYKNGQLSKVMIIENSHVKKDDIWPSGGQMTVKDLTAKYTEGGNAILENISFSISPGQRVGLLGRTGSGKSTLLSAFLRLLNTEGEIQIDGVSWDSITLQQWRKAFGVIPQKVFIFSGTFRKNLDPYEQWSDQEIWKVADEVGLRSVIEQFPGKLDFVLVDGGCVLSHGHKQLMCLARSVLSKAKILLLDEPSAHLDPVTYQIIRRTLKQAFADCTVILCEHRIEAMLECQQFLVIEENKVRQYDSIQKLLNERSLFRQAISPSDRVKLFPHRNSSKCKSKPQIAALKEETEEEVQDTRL
row,EC50,SMILES
1,< 500 nM,"COc1ccc(CN2CCCCC[C@](O)(C(F)(F)F)C3=NN=C(O3)c3nc(c(C(F)(F)F)cc3N)C2=O)c(F)c1F [Compound 175, (6R)-17-amino-12-[(2,3-difluoro-4-methoxy-phenyl)methyl]-6-hydroxy-6,15-bis (trifluoromethyl)-19-oxa-3,4,12,18-tetrazatricyclo [12.3.1.12,5] nonadeca-1(18),2,4,14,1 6-pentaen-13-one]"
2,< 500 nM,"Nc1cc(C(F)(F)F)c2nc1-c1nnc(o1)[C@@](O)(C(F)(F)F)CCCCCN(Cc1ccc(C(F)(F)F)nc1)C2=O [Compound 147, (6R)-17-amino-6-hydroxy-6,15-bis (trifluoromethyl)-12-[[6-(trifluoromethyl)-3-pyridyl]methyl]-19-oxa-3,4,12,18-tetrazatricyclo [12.3.1.12,5] nonadeca-1(18),2,4,14,1 6-pentaen-13-one]"
3,< 500 nM,"Nc1cc(C(F)(F)F)c2nc1-c1nnc(o1)C(O)(C(F)(F)F)CCCCCN(CC(F)(F)F)C2=O (single isomer, unassigned) [Compound 206, 17-amino-6-hydroxy-12-(2,2,2-trifluoroethyl)-6,15-bis(trifluoromethyl)-19-oxa-3,4,12,18-tetrazatricyclo [12.3.1.12,5] nonadeca-1(18),2,4,14,16-pentaen-13-one]"
4,< 500 nM,"Nc1cc(C(F)(F)F)c2nc1-c1nnc(o1)[C@@](O)(C(F)(F)F)CCCCCN(Cc1ccc(F)cc1)C2=O [Compound 136, (6R)-17-amino-12-[(4-fluorophenyl)methyl]-6-hydroxy-6,15-bis (trifluorom ethyl)-19-oxa-3,4,12,18-tetrazatricyclo [12.3.1.12,5] nonadeca-1(18),2,4,14,1 6-pentaen-13-one]"
5,< 500 nM,"Nc1cc(C(F)(F)F)c2nc1-c1nnc(o1)C(O)(C(F)(F)F)CCCCN(Cc1ccccc1)C2=O (single isomer, unassigned) [Compound 238, 16-amino-11-benzyl-6-hydroxy-6,14-bis(trifluoromethyl)-18-oxa-3,4,11,17-tetrazatricyclo [11.3.1.12,5] octadeca-1(17),2,4,13,15-pentaen-12-one]"

# More lines, now with the values behind:
row,SMILES,EC50
1,"Cn1ccc(CN2CCCCC[C@](O)(C(F)(F)F)C3=NN=C(O3)c3nc(c(C(F)(F)F)cc3N)C2=O)n1 [Compound 117, (6R)-17-Amino-6-hydroxy-12-[(1-methylpyrazol-3-yl)methyl]-6,15-bis (trifluorom ethyl)-19-oxa-3,4,12,18-tetrazatricyclo [12.3.1.12,5] nonadeca-1(18),2,4,14,1 6-pentaen-13-one]",> 1000 nM
2,"Nc1cc(C(F)(F)F)c2nc1-c1nnc(o1)[C@@](O)(C(F)(F)F)CCCCCN(C1CCCCC1)C2=O [Compound 81, (6R)-17-Amino-12-cyclohexyl-6-hydroxy-6,15-bis (trifluoromethyl)-19-oxa-3,4,12,18-tetrazatricyclo [12.3.1.12,5] nonadeca-1(18),2,4,14,1 6-pentaen-13-one]",< 500 nM
3,"Nc1cc(C(F)(F)F)c2nc1-c1nnc(o1)[C@@](O)(C(F)(F)F)CCCCCN(CC1CCCCO1)C2=O (mixture of isomers) [Compound 130, (6R)-17-amino-6-hydroxy-12-(tetrahydropyran-2-ylmethyl)-6,15-bis (trifluoromethyl)-19-oxa-3,4,12,18-tetrazatricyclo [12.3.1.12,5] nonadeca-1(18),2,4,14,1 6-pentaen-13-one]",< 500 nM
4,"CC1CCCCCCC(O)(C(F)(F)F)C2=NN=C(O2)c2nc1c(C(F)(F)F)cc2N (single isomer, unassigned) [Compound 19, 17-amino-13-methyl-6,15-bis(trifluoromethyl)-19-oxa-3,4,18-triazatricyclo[12.3.1.12,5]nonadeca-1(18),2,4,14,16-pentaen-6-ol]",< 500 nM
5,"Nc1cc(C(F)(F)F)c2nc1-c1nnc(o1)[C@](O)(C(F)(F)F)CCC(F)(F)CCCC2=O [Compound 41, (6S)-17-amino-9,9-difluoro-6-hydroxy-6,15-bis(trifluoromethyl)-19-oxa-3,4,18-triazatricyclo[12.3.1.12,5]nonadeca-1(18),2,4,14,16-pentaen-13-one]",< 500 nM
